Data set [1] has as its target T1, Lysosomal Pro-X carboxypeptidase (Mus musculus, UniProt Q7TMR0).
T1 sequence (Q7TMR0 whole entry): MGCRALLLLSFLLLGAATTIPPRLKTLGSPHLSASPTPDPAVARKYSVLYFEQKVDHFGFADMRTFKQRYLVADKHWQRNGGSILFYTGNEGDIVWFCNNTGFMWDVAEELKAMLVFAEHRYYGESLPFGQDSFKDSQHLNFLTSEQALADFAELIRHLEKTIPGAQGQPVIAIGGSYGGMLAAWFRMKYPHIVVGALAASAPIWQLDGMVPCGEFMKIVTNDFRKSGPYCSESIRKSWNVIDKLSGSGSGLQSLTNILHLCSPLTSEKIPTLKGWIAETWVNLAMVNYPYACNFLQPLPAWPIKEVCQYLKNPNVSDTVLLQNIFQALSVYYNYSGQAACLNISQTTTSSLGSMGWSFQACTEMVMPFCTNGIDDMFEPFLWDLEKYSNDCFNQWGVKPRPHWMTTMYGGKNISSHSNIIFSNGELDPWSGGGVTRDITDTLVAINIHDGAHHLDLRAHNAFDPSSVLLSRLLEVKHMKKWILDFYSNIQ
The data set can be described thus: Inhibition of mouse PrCP.

Data set [2] in a line: Plasma protein binding in 10% human plasma assessed as percentage unbound. In kind it is ADME, cell-free.
Data set [3] can be described thus: Plasma protein binding in 10% mouse plasma assessed as percentage unbound. In kind it is ADME, cell-free.
Data set [4] in a line: Metabolic stability in human liver microsomes after 30 mins by LC/MS analysis. Conditions: read-out: Stability. In kind it is ADME, Microsome. Background: Liver microsomes are a subcellular fraction often used to study metabolism.
Data set [5] is described as follows: Metabolic stability in mouse liver microsomes after 30 mins by LC/MS analysis. In kind it is ADME, Microsome. The conditions noted are these: read-out: Stability.
A short description of data set [6]: Clearance in mouse at 0.5 mg/kg, iv and 1 mg/kg, po. In kind it is ADME, organism-based. The conditions noted are these: in vivo.
The nature of data set [7]: Volume of distribution in mouse at 0.5 mg/kg, iv and 1 mg/kg, po. In kind it is ADME, organism-based. The conditions noted are these: in vivo.
Data set [8] is described as follows: Half life in mouse at 0.5 mg/kg, iv and 1 mg/kg, po. In kind it is ADME, organism-based. Conditions: in vivo.
In data set [9] the test system is Mus musculus. The data set can be described thus: Dose normalized AUC in mouse at 1 mg/kg, po. Type of data set: ADME, organism-based. On the set-up: dose 1 mg/kg, route oral. Conditions: in vivo.
The nature of data set [10]: Oral bioavailability in mouse at 1 mg/kg. In kind it is ADME, organism-based. Conditions: in vivo.
Data set [11] addresses Mus musculus. The data set can be described thus: Ex-vivo inhibition of po dosed mouse PrCP in the absence of plasma by FRET analysis. In kind it is functional, organism-based.
The target in data set [12] is Mus musculus. Nature of the data set: Ex-vivo inhibition of PrCP in heat inactivated 25% plasma of po dosed mouse by FRET analysis. Type of data set: functional, organism-based.
Data set [13] concerns the target Mus musculus. The data set can be described thus: Ex-vivo inhibition of PrCP in heat inactivated 100% plasma of po dosed mouse by FRET analysis. Type of data set: functional, organism-based.
Data set [14] in a line: Drug uptake in C57 mouse plasma at 100 mg/kg, po after 20 hrs by LC/MS analysis. Type of data set: ADME, organism-based. On the set-up: dose 100 mg/kg, route oral.
Data set [15] is described as follows: Drug uptake in C57 mouse plasma at 10 mg/kg, po after 20 hrs by LC/MS analysis. In kind it is ADME, organism-based. On the set-up: dose 10 mg/kg, route oral.
Data set [16] can be described thus: Drug uptake in C57 mouse brain at 100 mg/kg, po after 20 hrs by LC/MS analysis. In kind it is ADME, organism-based. Details: dose 100 mg/kg, route oral. Conditions: read-out: Drug uptake.
Data set [17] is described as follows: Drug uptake in C57 mouse brain at 10 mg/kg, po after 20 hrs by LC/MS analysis. Type of data set: ADME, organism-based. On the set-up: dose 10 mg/kg, route oral. Conditions: read-out: Drug uptake.
The nature of data set [18]: Ratio of drug level in brain to plasma in C57 mouse at 100 mg/kg, po after 20 hrs by LC/MS analysis. In kind it is ADME, organism-based. The conditions noted are these: read-out: BPR. On the set-up: dose 100 mg/kg, route oral.
Data set [19] is described as follows: Ratio of drug level in brain to plasma in C57 mouse at 10 mg/kg, po after 20 hrs by LC/MS analysis. Details: dose 10 mg/kg, route oral. The conditions noted are these: read-out: BPR. Type of data set: ADME, organism-based.
Data set [20] concerns Mus musculus. Nature of the data set: Ex-vivo inhibition of PrCP in heat inactivated 100% plasma of C57 mouse assessed as target engagement at 100 mg/kg, po after 20 hrs by FRET analysis. Type of data set: functional.
Data set [21] has as its system Mus musculus. Nature of the data set: Ex-vivo inhibition of PrCP in heat inactivated 100% plasma of C57 mouse assessed as target engagement at 10 mg/kg, po after 20 hrs by FRET analysis. In kind it is functional.
Data set [22] concerns Mus musculus. Nature of the data set: Ex-vivo inhibition of PrCP in heat inactivated 100% plasma of C57 mouse assessed as target engagement at 100 mg/kg, po after 20 hrs calculated as [cmpd]plasma/([cmpd]plasma + Ki (heat inactivated plasma))x100. Type of data set: functional.
Data set [23] concerns Mus musculus. Nature of the data set: Ex-vivo inhibition of PrCP in heat inactivated 100% plasma of C57 mouse assessed as target engagement at 10 mg/kg, po after 20 hrs calculated as [cmpd]plasma/([cmpd]plasma + Ki (heat inactivated plasma))x100. In kind it is functional.
The nature of data set [24]: Apparent permeability across pig LLC-PK1 cells at 1 uM. In kind it is ADME, cell-based, Sus scrofa.
Data set [25] can be described thus: Clearance in mouse at 2 mg/kg, iv and 10 mg/kg, po. Type of data set: ADME, organism-based. Conditions: in vivo.
A short description of data set [26]: Volume of distribution in mouse at 2 mg/kg, iv and 10 mg/kg, po. Type of data set: ADME, organism-based. The conditions noted are these: in vivo.
A short description of data set [27]: Half life in mouse at 2 mg/kg, iv and 10 mg/kg, po. The conditions noted are these: in vivo. In kind it is ADME, organism-based.
Data set [28] has as its system Mus musculus. The data set can be described thus: Dose normalized AUC in mouse at 10 mg/kg, po. In kind it is ADME, organism-based. Details: dose 10 mg/kg, route oral. The conditions noted are these: in vivo.
The nature of data set [29]: Oral bioavailability in mouse at 10 mg/kg. In kind it is ADME, organism-based. The conditions noted are these: in vivo.

`Cc1cc(C2CCN(C(=O)[C@@H]3CN(C(C)(C)C)C[C@H]3c3ccc(F)cc3F)CC2)n(-c2ccc(F)c(Cl)c2)n1` yielded a 50% inhibitory concentration (IC50) in data set [1] of 0.8 nM. For the same compound, the fraction unbound in [2] and in [3] was 0.16 in each case. For the same compound, the remaining at 0.5 h was determined as 38% in [4] and 43% in data set [5]. The clearance in [6] is 68 mL/min/kg. Further, the Vd in [7] amounted to 19 L/kg. For the same compound, in [8], the half-life was 3.1 h. Also, the AUC/dose in data set [9] is 0.26 µM·kg·h/mg. In addition, the bioavailability in [10] is 59%. Further, the Ki came to 0.9 nM in data set [11], 1.3 nM in data set [12] and 2.5 nM in data set [13].
For `CC(C)(C)N1C[C@@H](C(=O)N2CCC(c3ccnn3-c3ccc(F)c(Cl)c3)CC2)[C@H](c2ccc(F)cc2F)C1`, in [1], the IC50 came to 0.3 nM. The figures for the fraction unbound in data set [2] and in [3] were 0.18 and 0.16, respectively. Moreover, the remaining at 0.5 h was determined as 4% in [4] and 3% in data set [5]. The same compound showed a clearance in [6] of 121 mL/min/kg. The compound also yielded a Vd in [7] of 22 L/kg. Moreover, the half-life in data set [8] is 3.1 h. Further, the AUC/dose in data set [9] is 0.05 µM·kg·h/mg. The bioavailability in data set [10] came to 18%. Moreover, the results for the Ki in [11], in [12] and in data set [13] were 0.5 nM, 0.7 nM and 1.4 nM, respectively. The concentration at 20 h in data set [14] amounted to 1800 nM; in data set [15] it was 196 nM; in [16], 801 nM; in [17] it was 21 nM. Besides, the Kp at 20 h was found to be 0.46 in data set [18] and 0.11 in data set [19]. Also, the inhibition in vivo at 100 mg/kg in data set [20] and in data set [22] was 99.9% throughout. Moreover, the values for the inhibition in vivo at 10 mg/kg in [21] and in [23] were 99.5% and 99.3%, respectively. The Papp at 1 µM in data set [24] was 28.8 ×10⁻⁶ cm/s.
For the compound `O=C([C@@H]1CNC[C@H]1c1ccc(F)cc1F)N1CCC(c2ccnn2-c2ccc(F)c(Cl)c2)CC1`, in [1], the concentration for half-maximal inhibition (IC50) came out at 3.7 nM. Besides, the values for the free fraction (fraction unbound) in [2] and in [3] were 0.12 and 0.1, respectively. In addition, the results for the remaining at 0.5 h in data set [4] and in data set [5] were 44% and 59%, respectively. In [6], this compound displayed a clearance of 60 mL/min/kg. For the same compound, in data set [7], the Vd is 8 L/kg. The compound also showed a half-life in data set [8] of 1.6 h. The compound also came in with an AUC/dose in data set [9] of 0.16 µM·kg·h/mg. This compound also registered a bioavailability in data set [10] of 27%. In addition, the Ki was found to be 2.9 nM in data set [11], 7.7 nM in data set [12] and 21.9 nM in [13].
For `Cc1nc(C2CCN(C(=O)[C@@H]3CN(C(C)(C)C)C[C@H]3c3ccc(F)cc3F)CC2)n(-c2ccc(Cl)c(C)c2)n1`, in [1], the 50% inhibitory concentration (IC50) was 10 nM. Besides, the fraction unbound was 0.16 in data set [2] and 0.13 in [3]. For the same compound, the remaining at 0.5 h was 11% in data set [4] and 22% in data set [5]. Besides, the clearance in data set [25] is 128 mL/min/kg. The compound also yielded a Vd in [26] of 17 L/kg. In data set [27], this compound had a half-life of 1.8 h. Further, in data set [28], the AUC/dose was 0.05 µM·kg·h/mg. This compound yielded a bioavailability in [29] of 20%. In addition, the Ki in [11] stood at 1 nM; in data set [12], 1.1 nM; in [13] it was 1.4 nM.

The IC50 is the concentration at which inhibition is half-maximal. As usually defined, the fraction unbound is free concentration divided by total concentration. As a reminder, the half-life is the time in which the quantity being followed falls by half. Usually bioavailability stands for dose-corrected exposure relative to a reference, in per cent. Low values mean little systemic uptake, high ones much systemic uptake. Broadly, the inhibition in vivo is the relative decrease from the control value, in per cent. A word on the Papp: it is a coefficient for how fast a substance crosses the barrier.
